# Experimental data reported in ChEMBL document CHEMBL5291721, “A preclinical secondary pharmacology resource illuminates target-adverse drug reaction associations of marketed drugs” (Nat Commun, 2023).
# Key:
# [1] = molecular target: Vascular endothelial growth factor receptor 2 (Homo sapiens, UniProt P35968); format: functional
# Estrogen receptor = molecular target: T1, Estrogen receptor (Homo sapiens, UniProt P03372)
# T1 sequence (P03372 whole entry): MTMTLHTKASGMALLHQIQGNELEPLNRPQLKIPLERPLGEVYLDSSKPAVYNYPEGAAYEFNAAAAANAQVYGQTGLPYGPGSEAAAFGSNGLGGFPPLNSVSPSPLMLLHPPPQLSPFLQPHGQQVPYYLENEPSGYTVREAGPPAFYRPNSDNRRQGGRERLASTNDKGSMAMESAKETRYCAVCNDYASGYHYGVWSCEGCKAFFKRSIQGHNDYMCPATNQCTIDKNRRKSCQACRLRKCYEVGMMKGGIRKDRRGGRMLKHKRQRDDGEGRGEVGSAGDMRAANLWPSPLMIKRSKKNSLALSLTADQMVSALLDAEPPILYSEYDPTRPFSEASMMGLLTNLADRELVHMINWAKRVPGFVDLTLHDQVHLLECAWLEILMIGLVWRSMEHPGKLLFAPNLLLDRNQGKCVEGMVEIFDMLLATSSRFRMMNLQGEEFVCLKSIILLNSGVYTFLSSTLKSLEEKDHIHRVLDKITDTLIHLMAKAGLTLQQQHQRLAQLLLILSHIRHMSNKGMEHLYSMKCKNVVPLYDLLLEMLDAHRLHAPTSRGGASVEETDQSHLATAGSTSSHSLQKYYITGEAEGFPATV
# [2] = molecular target: Beta-1 adrenergic receptor (Homo sapiens, UniProt P08588); format: functional
# Beta-1 adrenergic receptor, sequence (P08588 whole entry): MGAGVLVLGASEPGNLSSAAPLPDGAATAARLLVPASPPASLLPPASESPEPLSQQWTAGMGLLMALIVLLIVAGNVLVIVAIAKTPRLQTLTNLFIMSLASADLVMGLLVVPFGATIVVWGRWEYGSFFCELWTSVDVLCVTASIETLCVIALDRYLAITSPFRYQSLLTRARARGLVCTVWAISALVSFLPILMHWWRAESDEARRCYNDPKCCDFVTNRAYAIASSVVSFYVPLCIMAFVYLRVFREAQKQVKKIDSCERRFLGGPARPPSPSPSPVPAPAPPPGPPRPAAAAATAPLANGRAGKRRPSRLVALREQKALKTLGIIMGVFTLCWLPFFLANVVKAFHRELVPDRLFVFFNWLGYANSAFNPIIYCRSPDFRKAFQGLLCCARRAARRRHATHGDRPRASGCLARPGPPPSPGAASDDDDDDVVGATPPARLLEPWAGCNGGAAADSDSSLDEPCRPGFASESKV
# [3] = molecular target: Beta-2 adrenergic receptor (Homo sapiens, UniProt P07550)
# Beta-2 adrenergic receptor, sequence (P07550 whole entry): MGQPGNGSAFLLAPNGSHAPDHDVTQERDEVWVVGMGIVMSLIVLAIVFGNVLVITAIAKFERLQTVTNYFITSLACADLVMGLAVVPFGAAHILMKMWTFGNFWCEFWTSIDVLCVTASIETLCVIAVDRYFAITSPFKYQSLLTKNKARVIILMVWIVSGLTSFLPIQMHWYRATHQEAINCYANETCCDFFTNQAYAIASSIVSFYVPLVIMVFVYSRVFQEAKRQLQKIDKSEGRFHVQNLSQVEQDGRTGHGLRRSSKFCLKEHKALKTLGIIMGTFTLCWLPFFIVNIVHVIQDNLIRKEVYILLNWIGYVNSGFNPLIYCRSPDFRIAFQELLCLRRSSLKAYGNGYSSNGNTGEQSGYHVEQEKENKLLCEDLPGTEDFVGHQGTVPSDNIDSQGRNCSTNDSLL
# [4] = molecular target: T2, Type-1 angiotensin II receptor (Homo sapiens, UniProt P30556)
# T2 sequence (P30556 whole entry): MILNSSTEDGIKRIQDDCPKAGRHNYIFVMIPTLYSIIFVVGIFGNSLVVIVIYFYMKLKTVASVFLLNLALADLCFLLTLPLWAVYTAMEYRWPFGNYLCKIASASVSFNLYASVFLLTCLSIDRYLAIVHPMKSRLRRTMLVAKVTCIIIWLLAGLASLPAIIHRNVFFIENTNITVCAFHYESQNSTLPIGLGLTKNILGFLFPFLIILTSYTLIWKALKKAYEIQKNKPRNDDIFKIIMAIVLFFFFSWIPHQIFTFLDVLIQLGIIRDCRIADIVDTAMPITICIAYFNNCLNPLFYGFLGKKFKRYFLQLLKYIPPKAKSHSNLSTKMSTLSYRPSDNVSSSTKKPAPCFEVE
# Vasopressin V2 receptor = Vasopressin V2 receptor (Homo sapiens, UniProt P30518)
# Vasopressin V2 receptor, sequence (P30518 whole entry): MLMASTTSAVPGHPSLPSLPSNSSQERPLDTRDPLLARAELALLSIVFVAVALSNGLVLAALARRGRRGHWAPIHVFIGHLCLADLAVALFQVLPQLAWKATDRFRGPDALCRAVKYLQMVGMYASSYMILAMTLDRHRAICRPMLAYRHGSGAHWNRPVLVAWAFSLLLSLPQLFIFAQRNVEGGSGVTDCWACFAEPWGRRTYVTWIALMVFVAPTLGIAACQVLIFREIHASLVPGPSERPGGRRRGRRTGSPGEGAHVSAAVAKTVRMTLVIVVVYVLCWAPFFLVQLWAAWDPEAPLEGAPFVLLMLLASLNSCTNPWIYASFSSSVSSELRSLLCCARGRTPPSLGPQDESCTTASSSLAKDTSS
# [5] = molecular target: T3, Muscarinic acetylcholine receptor M2 (Homo sapiens, UniProt P08172); format: functional, cell-based
# T3 sequence (P08172 whole entry): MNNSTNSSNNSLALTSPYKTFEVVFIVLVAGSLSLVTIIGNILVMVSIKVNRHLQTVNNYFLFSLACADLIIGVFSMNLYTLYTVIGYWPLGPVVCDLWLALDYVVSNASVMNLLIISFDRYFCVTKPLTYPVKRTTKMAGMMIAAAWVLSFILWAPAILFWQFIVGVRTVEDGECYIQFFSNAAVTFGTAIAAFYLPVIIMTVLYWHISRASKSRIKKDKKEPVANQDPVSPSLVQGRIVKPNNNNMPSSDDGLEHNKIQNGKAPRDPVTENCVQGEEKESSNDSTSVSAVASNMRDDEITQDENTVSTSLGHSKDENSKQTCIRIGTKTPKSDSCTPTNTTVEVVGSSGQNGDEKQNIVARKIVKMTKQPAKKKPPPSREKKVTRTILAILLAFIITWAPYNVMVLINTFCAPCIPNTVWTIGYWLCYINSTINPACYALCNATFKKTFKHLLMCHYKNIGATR
# [6] = molecular target: Neuronal acetylcholine receptor subunit alpha-4 (Homo sapiens, UniProt P43681)
# D(1A) dopamine receptor = D(1A) dopamine receptor (Homo sapiens, UniProt P21728); format: functional, cell-based
# D(1A) dopamine receptor, sequence (P21728 whole entry): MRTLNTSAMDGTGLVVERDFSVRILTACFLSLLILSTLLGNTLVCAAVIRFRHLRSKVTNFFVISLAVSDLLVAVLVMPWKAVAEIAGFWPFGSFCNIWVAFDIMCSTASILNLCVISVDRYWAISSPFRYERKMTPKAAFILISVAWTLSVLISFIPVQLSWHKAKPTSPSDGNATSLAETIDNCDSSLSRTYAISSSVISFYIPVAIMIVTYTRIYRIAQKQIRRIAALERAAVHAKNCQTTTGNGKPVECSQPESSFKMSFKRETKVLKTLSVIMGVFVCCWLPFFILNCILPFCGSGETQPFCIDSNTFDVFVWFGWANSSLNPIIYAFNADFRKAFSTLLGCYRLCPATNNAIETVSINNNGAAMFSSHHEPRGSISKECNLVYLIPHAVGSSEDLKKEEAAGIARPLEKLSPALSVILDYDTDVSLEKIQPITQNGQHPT
# [7] = molecular target: Gamma-aminobutyric acid receptor subunit alpha-1 (Rattus norvegicus, UniProt P62813)
# Gamma-aminobutyric acid receptor subunit alpha-1, sequence (P62813 whole entry): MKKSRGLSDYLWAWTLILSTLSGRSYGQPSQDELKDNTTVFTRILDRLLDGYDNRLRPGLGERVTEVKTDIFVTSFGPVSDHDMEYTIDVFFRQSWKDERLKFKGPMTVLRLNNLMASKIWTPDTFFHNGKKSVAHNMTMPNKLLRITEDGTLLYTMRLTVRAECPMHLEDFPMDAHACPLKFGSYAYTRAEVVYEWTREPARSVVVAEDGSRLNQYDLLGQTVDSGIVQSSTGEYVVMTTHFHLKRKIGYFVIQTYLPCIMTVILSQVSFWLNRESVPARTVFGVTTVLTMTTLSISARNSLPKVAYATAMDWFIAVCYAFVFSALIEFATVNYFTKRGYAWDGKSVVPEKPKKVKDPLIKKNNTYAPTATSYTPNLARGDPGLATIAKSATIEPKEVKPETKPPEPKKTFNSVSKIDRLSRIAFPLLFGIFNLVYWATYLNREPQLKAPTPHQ
# [8] = molecular target: T4, 5-hydroxytryptamine receptor 1A (Homo sapiens, UniProt P08908); format: functional, cell-based
# T4 sequence (P08908 whole entry): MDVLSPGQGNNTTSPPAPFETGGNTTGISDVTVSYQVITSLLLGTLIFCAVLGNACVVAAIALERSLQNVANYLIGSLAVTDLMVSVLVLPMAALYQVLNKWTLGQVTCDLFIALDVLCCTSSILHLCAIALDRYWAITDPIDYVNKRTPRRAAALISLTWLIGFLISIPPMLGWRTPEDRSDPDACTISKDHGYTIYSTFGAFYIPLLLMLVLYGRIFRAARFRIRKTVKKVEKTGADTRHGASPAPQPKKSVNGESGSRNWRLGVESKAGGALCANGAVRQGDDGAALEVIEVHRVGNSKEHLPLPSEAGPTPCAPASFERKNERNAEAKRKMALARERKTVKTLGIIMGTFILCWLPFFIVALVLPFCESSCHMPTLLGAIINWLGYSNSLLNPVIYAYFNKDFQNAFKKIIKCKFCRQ
# [9] = molecular target: T5, 5-hydroxytryptamine receptor 2B (Homo sapiens, UniProt P41595); format: functional, cell-based
# T5 sequence (P41595 whole entry): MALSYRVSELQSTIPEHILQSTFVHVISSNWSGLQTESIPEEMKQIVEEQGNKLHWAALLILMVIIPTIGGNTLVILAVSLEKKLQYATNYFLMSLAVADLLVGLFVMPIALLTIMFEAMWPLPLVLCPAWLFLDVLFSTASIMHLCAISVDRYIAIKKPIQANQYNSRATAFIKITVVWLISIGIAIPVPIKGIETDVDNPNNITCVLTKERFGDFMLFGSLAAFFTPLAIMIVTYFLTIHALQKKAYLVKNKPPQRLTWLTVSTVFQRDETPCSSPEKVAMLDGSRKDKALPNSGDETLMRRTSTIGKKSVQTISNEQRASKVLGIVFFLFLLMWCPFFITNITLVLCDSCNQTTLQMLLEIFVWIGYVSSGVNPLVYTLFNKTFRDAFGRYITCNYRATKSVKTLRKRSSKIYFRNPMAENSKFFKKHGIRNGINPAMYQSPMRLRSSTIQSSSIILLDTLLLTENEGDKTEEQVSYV
# [10] = molecular target: T5, 5-hydroxytryptamine receptor 2B; format: functional, cell-based; remark: listed apart in the source
# Melanocortin receptor 3 = Melanocortin receptor 3 (Homo sapiens, UniProt P41968)
# Melanocortin receptor 3, sequence (P41968 whole entry): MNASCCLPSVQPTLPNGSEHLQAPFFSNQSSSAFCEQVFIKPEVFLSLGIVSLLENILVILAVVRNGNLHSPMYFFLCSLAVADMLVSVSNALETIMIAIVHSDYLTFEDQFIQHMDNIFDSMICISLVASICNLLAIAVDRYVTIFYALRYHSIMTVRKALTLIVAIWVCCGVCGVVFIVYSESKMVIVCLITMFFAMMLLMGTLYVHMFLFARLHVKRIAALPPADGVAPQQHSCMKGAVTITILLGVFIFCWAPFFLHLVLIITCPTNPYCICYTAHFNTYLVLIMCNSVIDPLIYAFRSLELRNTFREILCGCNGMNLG
# Motilin receptor = Motilin receptor (Homo sapiens, UniProt O43193)
# Motilin receptor, sequence (O43193 whole entry): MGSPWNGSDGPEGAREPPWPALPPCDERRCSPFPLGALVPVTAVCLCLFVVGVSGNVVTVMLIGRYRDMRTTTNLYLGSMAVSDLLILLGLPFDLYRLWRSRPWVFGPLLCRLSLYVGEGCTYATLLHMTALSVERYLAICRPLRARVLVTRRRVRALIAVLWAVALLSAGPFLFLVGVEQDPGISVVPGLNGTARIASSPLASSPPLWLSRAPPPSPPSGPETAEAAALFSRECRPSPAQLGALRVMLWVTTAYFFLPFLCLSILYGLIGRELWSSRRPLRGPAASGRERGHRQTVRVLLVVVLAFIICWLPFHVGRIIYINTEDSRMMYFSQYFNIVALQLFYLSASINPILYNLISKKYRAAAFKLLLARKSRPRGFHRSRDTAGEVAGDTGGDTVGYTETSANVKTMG
# Also: assay procedure not described here.
# Vascular endothelial growth factor receptor 2, sequence (P35968 whole entry): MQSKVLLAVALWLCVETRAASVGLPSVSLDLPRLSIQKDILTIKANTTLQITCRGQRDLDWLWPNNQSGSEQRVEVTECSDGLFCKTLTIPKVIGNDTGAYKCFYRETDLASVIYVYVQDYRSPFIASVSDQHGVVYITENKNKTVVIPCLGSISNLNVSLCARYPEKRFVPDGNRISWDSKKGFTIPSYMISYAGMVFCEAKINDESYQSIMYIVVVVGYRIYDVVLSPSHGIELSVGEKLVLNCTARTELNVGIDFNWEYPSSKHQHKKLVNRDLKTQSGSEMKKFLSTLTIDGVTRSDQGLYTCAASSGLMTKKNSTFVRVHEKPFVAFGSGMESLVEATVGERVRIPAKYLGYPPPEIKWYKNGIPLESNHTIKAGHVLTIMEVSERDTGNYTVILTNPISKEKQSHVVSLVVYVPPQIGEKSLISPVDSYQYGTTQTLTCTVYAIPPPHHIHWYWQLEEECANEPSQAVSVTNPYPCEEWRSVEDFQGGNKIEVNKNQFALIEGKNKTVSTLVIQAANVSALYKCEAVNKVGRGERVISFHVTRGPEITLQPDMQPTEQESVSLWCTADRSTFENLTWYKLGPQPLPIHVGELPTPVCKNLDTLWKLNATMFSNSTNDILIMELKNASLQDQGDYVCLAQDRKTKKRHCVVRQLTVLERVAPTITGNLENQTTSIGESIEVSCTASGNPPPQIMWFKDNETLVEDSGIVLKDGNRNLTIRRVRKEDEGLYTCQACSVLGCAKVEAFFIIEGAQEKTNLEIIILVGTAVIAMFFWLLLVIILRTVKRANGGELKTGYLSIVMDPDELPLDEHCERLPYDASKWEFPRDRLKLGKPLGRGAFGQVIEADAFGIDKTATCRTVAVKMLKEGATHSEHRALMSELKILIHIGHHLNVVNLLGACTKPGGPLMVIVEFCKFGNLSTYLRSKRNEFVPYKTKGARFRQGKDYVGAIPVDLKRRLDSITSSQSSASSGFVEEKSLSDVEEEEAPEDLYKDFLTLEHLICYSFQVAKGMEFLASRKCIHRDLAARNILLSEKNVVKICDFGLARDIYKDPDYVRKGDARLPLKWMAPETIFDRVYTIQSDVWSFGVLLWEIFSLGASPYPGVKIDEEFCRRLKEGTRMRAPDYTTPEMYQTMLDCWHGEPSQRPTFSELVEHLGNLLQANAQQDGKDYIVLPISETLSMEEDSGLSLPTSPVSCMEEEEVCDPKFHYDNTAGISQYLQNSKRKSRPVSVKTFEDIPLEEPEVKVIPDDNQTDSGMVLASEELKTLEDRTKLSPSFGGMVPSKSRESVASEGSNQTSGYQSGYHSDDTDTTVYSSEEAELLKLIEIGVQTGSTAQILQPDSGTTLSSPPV
compound,measurement,setting,value
N[C@@H](CO)C(=O)O [SERINE],AC50,[1],> 30 µM
OC[C@@H](O)[C@@H](O)[C@H](O)[C@@H](O)CO [SORBITOL],AC50,Estrogen receptor,> 30 µM
CN1CCCCC1CCN1c2ccccc2Sc2ccc([S+](C)[O-])cc21 (stereo not drawn) [MESORIDAZINE],AC50,Estrogen receptor,> 10 µM
same,AC50,[1],> 30 µM
Cc1onc(-c2ccccc2)c1C(=O)N[C@@H]1C(=O)N2[C@@H]1SC(C)(C)[C@@H]2C(=O)O [OXACILLIN],AC50,Estrogen receptor,> 30 µM
same,AC50,[1],> 30 µM
CCCN(CCC)C(=O)Cc1c(-c2ccc(Cl)cc2)nc2ccc(Cl)cn12 [ALPIDEM],AC50,[2],> 30 µM
same,AC50,[3],> 30 µM
same,AC50,[4],> 30 µM
same,AC50,Vasopressin V2 receptor,> 30 µM
same,AC50,[5],> 30 µM
same,AC50,[6],> 30 µM
same,AC50,D(1A) dopamine receptor,> 30 µM
same,AC50,Estrogen receptor,> 30 µM
same,AC50,[7],> 30 µM
same,AC50,[8],> 30 µM
same,AC50,[9],> 30 µM
same,AC50,[10],> 30 µM
same,AC50,Melanocortin receptor 3,> 30 µM
same,AC50,Motilin receptor,> 30 µM
CCCC(CCC)C(=O)O [VALPROIC ACID],AC50,[2],> 10 µM
same,AC50,[3],> 10 µM
same,AC50,[4],> 30 µM
same,AC50,Vasopressin V2 receptor,> 30 µM
same,AC50,[5],> 10 µM
same,AC50,[6],> 10 µM
same,AC50,D(1A) dopamine receptor,> 10 µM
same,AC50,Estrogen receptor,> 30 µM
same,AC50,[7],> 10 µM
same,AC50,[8],> 10 µM
same,AC50,[9],> 10 µM
same,AC50,[10],> 10 µM
same,AC50,Melanocortin receptor 3,> 30 µM
same,AC50,Motilin receptor,> 10 µM
CC(CN1CC(=O)NC(=O)C1)N1CC(=O)NC(=O)C1 (stereo not drawn) [RAZOXANE],AC50,Estrogen receptor,> 30 µM
same,AC50,[1],> 30 µM
C[N+](C)(C)C[C@H](O)CC(=O)[O-] [LEVOCARNITINE],AC50,[1],> 30 µM
CC[C@@]1(O)C(=O)OCc2c1cc1n(c2=O)Cc2cc3c([N+](=O)[O-])cccc3nc2-1 [RUBITECAN],AC50,Estrogen receptor,> 30 µM
COc1cc2nc(N3CCN(C(=O)C4CCCO4)CC3)nc(N)c2cc1OC (stereo not drawn) [TERAZOSIN],AC50,[2],> 10 µM
same,AC50,[3],> 10 µM
same,AC50,[4],> 30 µM
same,AC50,Vasopressin V2 receptor,> 30 µM
same,AC50,[5],> 10 µM
same,AC50,[6],> 10 µM
same,AC50,D(1A) dopamine receptor,> 10 µM
same,AC50,Estrogen receptor,> 30 µM
same,AC50,[7],> 10 µM
same,AC50,[8],> 10 µM
same,AC50,[9],> 10 µM
same,AC50,[10],> 10 µM
same,AC50,Melanocortin receptor 3,> 30 µM
same,AC50,Motilin receptor,> 10 µM
CC(C)(O)CNc1nc(Nc2ccnc(C(F)(F)F)c2)nc(-c2cccc(C(F)(F)F)n2)n1 [ENASIDENIB],AC50,Estrogen receptor,> 30 µM
same,AC50,[1],20.5 µM
CN1C(C(=O)Nc2ccccn2)=C(O)c2ccccc2S1(=O)=O [PIROXICAM],AC50,[2],> 10 µM
same,AC50,[3],> 10 µM
same,AC50,[4],> 30 µM
same,AC50,Vasopressin V2 receptor,> 10 µM
same,AC50,[5],> 10 µM
same,AC50,[6],> 10 µM
same,AC50,D(1A) dopamine receptor,> 10 µM
same,AC50,Estrogen receptor,> 30 µM
same,AC50,[7],> 10 µM
same,AC50,[8],> 10 µM
same,AC50,[9],> 10 µM
same,AC50,[10],> 10 µM
same,AC50,Melanocortin receptor 3,> 10 µM
same,AC50,Motilin receptor,> 10 µM
CCOC(=O)C1=C[C@@H](OC(CC)CC)[C@H](NC(C)=O)[C@@H](N)C1 [OSELTAMIVIR],AC50,[1],> 30 µM
O=C(O)CO [GLYCOLIC ACID],AC50,Estrogen receptor,> 30 µM
CN(C)[C@@H]1C(O)=C(C(N)=O)C(=O)[C@@]2(O)C(O)=C3C(=O)c4c(O)ccc(Cl)c4[C@@](C)(O)[C@H]3C[C@@H]12 [CHLORTETRACYCLINE],AC50,[1],> 30 µM
C=CCN1CC[C@]23CCCC[C@H]2[C@H]1Cc1ccc(O)cc13 [LEVALLORPHAN],AC50,[1],> 30 µM
CCOC(=O)c1c(C)cc2c(CO)n[nH]c(=O)c2c1C [OXAGRELATE],AC50,Estrogen receptor,> 30 µM
CC(N)C12CC3CC(CC(C3)C1)C2 (stereo not drawn) [RIMANTADINE],AC50,[2],> 10 µM
same,AC50,[3],> 10 µM
same,AC50,[4],> 10 µM
same,AC50,Vasopressin V2 receptor,> 10 µM
same,AC50,[5],> 10 µM
same,AC50,[6],> 10 µM
same,AC50,D(1A) dopamine receptor,> 10 µM
same,AC50,[7],> 10 µM
same,AC50,[8],> 10 µM
same,AC50,[9],> 10 µM
same,AC50,[10],> 10 µM
same,AC50,Melanocortin receptor 3,> 10 µM
same,AC50,Motilin receptor,> 10 µM
C[C@@H]1C[C@H]2[C@@H]3CCC4=CC(=O)C=C[C@]4(C)[C@@]3(Cl)[C@@H](O)C[C@]2(C)[C@@]1(OC(=O)c1ccco1)C(=O)CCl [MOMETASONE FUROATE],AC50,[1],> 30 µM
CC1=C(/C=C/C(C)=C/C=C/C(C)=C/C(=O)O)C(C)(C)CCC1 [TRETINOIN],AC50,[1],> 30 µM
